Source: patent US20240298638A1, “METHODS AND COMPOSITIONS FOR REDUCING MICROBIAL CONTAMINANTS DURING POULTRY PROCESSING” (DIVERSEY, INC., priority 2020, published 2024)

System: Salmonella Enterica ATCC 10708
Assay: Antimicrobial efficacy on inoculated chicken drumettes (log10 reduction, nBPW neutralizer; Colby synergy)
Assay type: cell-based
Conditions: for Observed Average Reduction (AntiLog10 value): antiLog10 of the observed log10 reduction; for Observed Average Reduction (AntiLog10 value) / Observed Average Log10 Reduction: Salmonella Enterica ATCC 10708; for Observed Average Log10 Reduction: chicken drumettes soaked 90 seconds in composition, recovery in nBPW neutralizer

CC(O)CO (centres unmarked) [Propylene glycol]
antimicrobial efficiency of the organic solvent by itself (by itself): did not provide any antimicrobial efficiency

CCC(=O)O [propionic acid]
Observed Average Reduction (AntiLog10 value): 6.17 | Observed Average Log10 Reduction: 0.79 log10

CC(=O)OO [PAA, peracetic acid]
Observed Average Reduction (AntiLog10 value): 14.15 | Observed Average Log10 Reduction: 1.16 log10
